# Measurements published in paper PMC10305147 (Life, 2023).
# What was measured:
# [1] = target: T1, Acetylcholinesterase (AChE) (Electrophorus electricus, UniProt O42275)
# Protocol: (§1) AChE was used to carry out the inhibitory assay using Ellman’s method [23] with modifications. A 0.05 M phosphate buffer, pH 8.0, was used in this protocol. Additionally, 60 µL of the herbal extract was mixed with the same volume of 0.5 mM enzyme solution and 120 µL of phosphate buffer, and kept at 25 °C for 15 min in a flat-bottom 96-well plate. Agent 5, 5′-dithiobis-2-nitrobenzoic acid (DTNB, 30 µL of 0.003 M) and 40 µL of 0.002 M acetylthiocholine iodide (ATCI) were added into the mixture to start the reaction. The reaction was maintained at 25 °C for 10 min before the absorbance was measured at the wavelength of 415 nm. For the control group, 60 µL of phosphate buffer was used instead of 60 µL of the herbal extract solution and the same condition was used for the calculation of enzyme inhibition activity using the following equation:AChE inhibition (%) = (AC − AE)/AC × 100, where AE is the absorbance value measured at 415 nm of the reaction containing herbal extract and enzyme, while AC is the absorbance value at 415 nm of the reaction containing enzyme and phosphate buffer instead of the herbal extract. The samples and berberine chloride (commercial AChE inhibitor) were dissolved in dimethylsulfoxide and eluted at various concentrations using a 0.05 M phosphate buffer and then used for the tests.
# [2] = target: T1, Acetylcholinesterase (AChE); experiment: AChE enzyme inhibition assay (Ellman's method, modified); settings: IC50, different parts of ELC extracted by MeOH (Table 2)
# Protocol: as §1
# [3] = target: T1, Acetylcholinesterase (AChE); experiment: biochemical
# Protocol: as §1
# [4] = test system: tumor cell lines; settings: EGCG from green tea at 40–200 microM; cited from earlier work
# [5] = test system: WI38 normal cells; settings: EGCG from green tea at 40–200 microM; cited from earlier work
# [6] = test system: HuCC-T1 cancer cells; settings: cited from earlier work
# [7] = test system: 293T normal cells; settings: cited from earlier work
# [8] = test system: normal cells; settings: cited from earlier work; for effect on normal cells: cause death for various cancer cells
# [9] = test system: bronchial epithelial 16HBE normal cells; settings: cited from earlier work
# [10] = adjuvant chemotherapeutic agents; cited from earlier work
# T1 sequence (O42275 24-633): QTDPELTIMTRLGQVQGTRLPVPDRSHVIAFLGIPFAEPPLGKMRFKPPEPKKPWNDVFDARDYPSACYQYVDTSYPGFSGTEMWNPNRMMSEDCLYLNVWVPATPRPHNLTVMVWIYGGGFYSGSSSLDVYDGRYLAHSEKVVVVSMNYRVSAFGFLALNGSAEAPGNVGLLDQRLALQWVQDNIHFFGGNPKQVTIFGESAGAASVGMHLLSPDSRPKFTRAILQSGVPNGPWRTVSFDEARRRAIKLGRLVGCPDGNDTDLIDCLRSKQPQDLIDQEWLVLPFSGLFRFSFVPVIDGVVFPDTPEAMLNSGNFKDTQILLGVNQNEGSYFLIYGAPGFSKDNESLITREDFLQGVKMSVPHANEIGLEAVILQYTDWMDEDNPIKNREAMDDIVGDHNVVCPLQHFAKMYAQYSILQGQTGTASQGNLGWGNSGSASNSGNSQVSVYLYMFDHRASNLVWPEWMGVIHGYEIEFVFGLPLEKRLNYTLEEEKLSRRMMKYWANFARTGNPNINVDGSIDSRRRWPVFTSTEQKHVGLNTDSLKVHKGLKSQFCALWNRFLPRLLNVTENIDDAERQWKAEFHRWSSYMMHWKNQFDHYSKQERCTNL
compound,measurement,setting,value
"COc1ccc2cc3[n+](cc2c1OC)CCc1cc2c(cc1-3)OCO2 [Berberine chloride, berberine chloride]",inhibition,[1],98.2 ± 1.8%
same,IC50,[2],972 µM
same,IC50,[3],934 µM
"O=C(O[C@@H]1Cc2c(O)cc(O)cc2O[C@@H]1c1cc(O)c(O)c(O)c1)c1cc(O)c(O)c(O)c1 [Compd 12, epigallocatechin gallate]",death of tumor cell lines,[4],significant death
same,WI38 normal cells growth affected,[5],1%
same,toxicity on HuCC-T1 cancer cells,[6],toxic
same,viability of 293T normal cells,[7],safe
"Oc1cc(O)c2c(c1)O[C@H](c1ccc(O)c(O)c1)[C@H](O)C2 [Compd 13, epicatechin]",effect on normal cells,[8],no effect on normal cells
"O=C(O[C@@H]1Cc2c(O)cc(O)cc2O[C@@H]1c1ccc(O)c(O)c1)c1cc(O)c(O)c(O)c1 [Compd 14, epicatechin gallate]",effect on normal cells,[8],no effect on normal cells
"O=c1cc(-c2ccc(O)cc2)oc2c([C@@H]3O[C@H](CO)[C@@H](O)[C@H](O)[C@H]3O)c(O)cc(O)c12 [Compd 15, vitexin]",effect on bronchial epithelial 16HBE normal cells,[9],non-effect
"C[C@@H]1O[C@@H](OC[C@H]2O[C@@H](Oc3c(-c4ccc(O)c(O)c4)oc4cc(O)cc(O)c4c3=O)[C@H](O)[C@@H](O)[C@@H]2O)[C@H](O)[C@H](O)[C@H]1O [Compd 17, rutin]",toxicity and side effects via in vivo and clinical trials,[10],trivial toxicity and side effects
"O=c1cc(-c2ccc(O)cc2)oc2cc(O[C@@H]3O[C@H](CO)[C@@H](O)[C@H](O)[C@H]3O)cc(O)c12 [Compd 18, apigetrin]",toxicity and side effects via in vivo and clinical trials,[10],trivial toxicity and side effects
"O=c1c(O)c(-c2cc(O)c(O)c(O)c2)oc2cc(O)cc(O)c12 [Compd 19, myricetin]",toxicity and side effects via in vivo and clinical trials,[10],trivial toxicity and side effects
"O=c1c(O)c(-c2ccc(O)c(O)c2)oc2cc(O)cc(O)c12 [Compd 20, quercetin]",effects on normal cells,[8],no or low effects on normal cells
"O=c1cc(-c2ccc(O)cc2)oc2cc(O)cc(O)c12 [Compd 21, apigenin]",effects on normal cells,[8],no or low effects on normal cells
